Experimental data from patent US11096968B2, “Use of anti-aging glycoprotein for enhancing survival of neurosensory precursor cells” (PROTOKINETIX INC., priority 2016, dated 2021).

Columns and labels:
[1] = system: photoreceptor precursor cells (PPCs); assay: PPC survival in ex vivo co-culture system, viable labelled PPCs counted by FACS; type: cell-based, human; conditions: PPCs pre-treated 24 hours with 4 mg/ml AAGP, 10 days of co-culture
Protocol: FIG. 3 illustrates that Cell survival is enhanced by pre-incubation with AAGP™. Untreated or AAGP™-treated PPCs are fluorescently labelled and placed between retinal explants and RPE for ten days (n=4). Live PPCs are separated by Fluorescence-Activated Cell Sorting and the proportion of cells surviving after 10 days of co-culture was calculated. Percent cell survival of untreated and AAGP-treated PPCs was plotted ( ? ) and for each condition the average±SEM is represented by a thick black line.
To determine whether AAGP™ improves PPC survival in the ex vivo system, PPC cell viability is assessed with and without pre-treating cell grafts with AAGP™ for 24 hours prior to inclusion within the ex vivo system. PPCs are labelled with 20 μM CellTrace™ Far Red DDAO-SE (Life Technologies). […] After 10 days, the components of the co-culture system are enzymatically dissociated into single cell suspensions and the number of viable PPCs is assessed by Fluorescence-Activated Cell Sorting (FACS; Influx Sorter; BD Biosciences).
Finally, the viability of PPCs in the ex vivo system is tested. […] Ten days later, the co-cultured components were dissociated into single cells and viable PPCs (labeled red) were separated by Fluorescence activated cell sorting (FACS, FIG. 3). The proportion of live cells remaining after 10 days of co-culture is calculated. […]

[2] = system: prostaglandin E2 (PGE2) secreted by degenerating retinal explants; assay: PGE2 ELISA of explant medium from ex vivo retinal explant/RPE co-culture; type: cell-based, rat; conditions: 4 mg/ml AAGP present for the first day, medium collected after 10 days of co-culture; n=3; p<0.05; without AAGP ~20 pg/ml
Protocol: (§1) FIG. 2 illustrates that AAGP™ reduces the amount of prostaglandin E2 (PGE2) secreted by degenerating explants and the level of COX-2 expression. PGE2 is toxic to photoreceptor precursor cells (PPCs). (A) Rat retinal explants were cultured in explant medium with or without 4 mg/ml AAGP (n=3 for each condition). Explant media was replaced after 24 hours and replenished every other day with medium not containing AAGP. After ten days, explant medium was collected and processed for PGE2 ELISA. Histograms represent the amount of PGE2 (pg/ml) present in the explant medium. (B) COX-2 expression was assessed by RT-qPCR in stressed ARPE-19 cells in the presence or absence of 4 mg/ml AAGP (n=4). Histograms represent fold change in COX-2 expression, normalized to GAPDH. […]
(§2) Firstly, the amount of PGE2 produced is determined within the ex vivo system under normal culture conditions and after media is supplemented with 4 mg/ml AAGP for the first 24 hours of co-culture. Three equal-sized retinal quadrants, measuring ˜10 mm^2 each, and are analyzed for each condition. Explant media are collected at the end of 10 days and assessed for concentration of PGE2 by enzyme-linked immunosorbent assay (ELISA; R&D Systems). PGE2 induced reduction in metabolic activity, contributing to cell death, is assessed in PPCs cultured in isolation using a Thiazolyl Blue Tetrazolium Bromide (MTT) assay (Sigma).

PPCs = assay: Toxicity of AAGP to PPCs (unpublished data); type: cell-based, human; conditions: 4 mg/ml
Protocol: Now referring to FIG. 1, within the ex vivo system, rat neurosensory retinal explants are incubated upon human embryonic stem cells (hESC) derived retinal pigment epithelium (RPE). Neurosensory retina was obtained from the S334ter-4 model of retinal degeneration (Chen et al, 1995) and cultured within the system for 10 days (for detailed experimental design see Yanai et al., 2015). Rodent retinal tissue collection was carried out with approval of the Animal Care Committee at the University of British Columbia and in accordance with the Association for Research in Vision and Ophthalmology Statement for the Use of Animals in Ophthalmic and Vision Research. Throughout the present study, AAGP™ was used at 4 mg/ml, after it was confirmed it was not toxic to PPCs at this concentration (unpublished data).

[3] = system: COX-2 expression in stressed ARPE-19 cells; assay: COX-2 expression by RT-qPCR in ARPE-19 cell stress assay (IL-1β followed by ATP); type: cell-based, human; conditions: stressed ARPE-19 cells (17 ng/ml IL-1β 8 h, then 5 mM ATP 1 h) in presence of 4 mg/ml AAGP; normalized to GAPDH; n=4
Protocol: as §1, with “GAPDH. (C) Cultured PPCs were treated with increasing amounts of PGE2 for 48 hours, followed by the MTT assay (n=4).” for “GAPDH.”
To determine whether AAGP™ inhibits COX-2 expression, ARPE-19 cells (Dunn et al., 1996) are treated with 17 ng/ml Interleukin 1β (IL-1β; Sigma; Lukiw et al., 2006) for 8 hours and then added 5 mM ATP for 1 hour to further induce cell stress (Sigma; Mehta et al., 2001). […] COX-2 expression is assessed using Reverse Transcription Quantitative Polymerase Chain Reaction (RT-qPCR) with the TaqMan® primer/probe system, Fast Advanced Master Mix and the ViiA™ 7 Real Time PCR system (Applied Biosystems). […]

[4] = system: photoreceptor precursor cells (PPCs); assay: MTT assay of cultured PPCs treated with increasing amounts of PGE2; type: cell-based, human; conditions: PPCs cultured 48 hours with increasing PGE2, up to 50 μM; n=4
Protocol: as §1
as §2, with “(Sigma). […]” for “(Sigma).”

Structure (SMILES) | increase in average cell viability vs. untreated PPCs [1] | amount of PGE2 in explant medium [2] | toxicity to PPCs (PPCs) | decline in COX-2 expression [3] | reduction of cell survival (MTT) [4]
C[C@H](NC(=O)[C@H](C)NC(=O)[C@@H](N)CCCCNC(=O)C(F)(F)C1(O)O[C@H](CO)[C@H](O)[C@H](O)[C@H]1O)C(=O)O (some centres unmarked) [AAGP™] | ~3 fold | ~7.5 pg/mL | not toxic | at least 13.3±4.5 fold | 
CCCCC[C@H](O)/C=C/[C@H]1[C@H](O)CC(=O)[C@@H]1C/C=C\CCCC(=O)O [PGE2, prostaglandin E2] |  |  |  |  | up to 44%
